Measurements: PubChem BioAssay (NCI)
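Following 48 hours of exposure in 96-well plates, responses at five concentrations were used to interpolate endpoints linearly. TGI marks complete inhibition of growth.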

What was measured:
Test in all cases: NCI tumour cell line growth inhibition, 48 h
MOLT-4 leukemia = tested on: MOLT-4 leukemia
UACC-62 melanoma = tested on: UACC-62 melanoma
OVCAR-4 ovarian = tested on: OVCAR-4 ovarian
SNB-78 CNS = tested on: SNB-78 CNS
TK-10 renal = tested on: TK-10 renal
SN12C renal = tested on: SN12C renal
NCI-H460 lung = tested on: NCI-H460 lung
UO-31 renal = tested on: UO-31 renal
U251 CNS = tested on: U251 CNS
EKVX NSCLC = tested on: EKVX NSCLC
HOP-62 NSCLC = tested on: HOP-62 NSCLC
OVCAR-5 ovarian = tested on: OVCAR-5 ovarian
CAKI-1 renal = tested on: CAKI-1 renal
MALME-3M melanoma = tested on: MALME-3M melanoma
SF-268 CNS = tested on: SF-268 CNS
CCRF-CEM leukemia = tested on: CCRF-CEM leukemia
NCI-H23 lung = tested on: NCI-H23 lung
SF-295 CNS = tested on: SF-295 CNS
OVCAR-8 ovarian = tested on: OVCAR-8 ovarian
HOP-18 NSCLC = tested on: HOP-18 NSCLC
RXF 393 renal = tested on: RXF 393 renal
HCC-2998 colon = tested on: HCC-2998 colon
HCT-116 colon = tested on: HCT-116 colon
IGROV1 ovarian = tested on: IGROV1 ovarian
HOP-92 NSCLC = tested on: HOP-92 NSCLC
SK-MEL-5 melanoma = tested on: SK-MEL-5 melanoma
RXF-631 renal = tested on: RXF-631 renal
A549 NSCLC = tested on: A549 NSCLC
HL-60(TB) leukemia = tested on: HL-60(TB) leukemia
SW-620 colon = tested on: SW-620 colon
KM20L2 colon = tested on: KM20L2 colon
ACHN renal = tested on: ACHN renal
UACC-257 melanoma = tested on: UACC-257 melanoma
LXFL 529 NSCLC = tested on: LXFL 529 NSCLC
K-562 leukemia = tested on: K-562 leukemia
786-0 renal = tested on: 786-0 renal
HCT-15 colon = tested on: HCT-15 colon
COLO 205 colon = tested on: COLO 205 colon
NCI-H226 lung = tested on: NCI-H226 lung
SF-539 CNS = tested on: SF-539 CNS
NCI-H522 lung = tested on: NCI-H522 lung
A498 renal = tested on: A498 renal
SK-MEL-28 melanoma = tested on: SK-MEL-28 melanoma
HT29 colon = tested on: HT29 colon
KM12 colon = tested on: KM12 colon
M14 melanoma = tested on: M14 melanoma
SNB-19 CNS = tested on: SNB-19 CNS
OVCAR-3 ovarian = tested on: OVCAR-3 ovarian
DMS 114 small cell lung = tested on: DMS 114 small cell lung
DLD-1 colon = tested on: DLD-1 colon
SNB-75 CNS = tested on: SNB-75 CNS
SR leukemia = tested on: SR leukemia
DMS 273 small cell lung = tested on: DMS 273 small cell lung
LOX IMVI melanoma = tested on: LOX IMVI melanoma
XF 498 CNS = tested on: XF 498 CNS
SK-MEL-2 melanoma = tested on: SK-MEL-2 melanoma
M19-MEL melanoma = tested on: M19-MEL melanoma
SK-OV-3 ovarian = tested on: SK-OV-3 ovarian
RPMI-8226 leukemia = tested on: RPMI-8226 leukemia

Structure (SMILES): CCOC(=O)c1[nH]c(CN(C)Cc2[nH]c(C(=O)OCC)c(C)c2C(=O)OCc2ccccc2)c(C(=O)OCc2ccccc2)c1C
- TGI (MOLT-4 leukemia): > 100 µM
- TGI (UACC-62 melanoma): 85.3 µM
- TGI (OVCAR-4 ovarian): 32.1 µM
- TGI (SNB-78 CNS): > 100 µM
- TGI (TK-10 renal): 43.8 µM
- TGI (SN12C renal): 34.5 µM
- TGI (NCI-H460 lung): 62.2 µM
- TGI (UO-31 renal): > 100 µM
- TGI (U251 CNS): 34 µM
- TGI (EKVX NSCLC): 42.5 µM
- TGI (HOP-62 NSCLC): 89.7 µM
- TGI (OVCAR-5 ovarian): 44.8 µM
- TGI (CAKI-1 renal): 23.8 µM
- TGI (MALME-3M melanoma): > 100 µM
- TGI (SF-268 CNS): > 100 µM
- TGI (CCRF-CEM leukemia): > 100 µM
- TGI (NCI-H23 lung): 42 µM
- TGI (SF-295 CNS): > 100 µM
- TGI (OVCAR-8 ovarian): > 100 µM
- TGI (HOP-18 NSCLC): > 100 µM
- TGI (RXF 393 renal): 22.3 µM
- TGI (HCC-2998 colon): > 100 µM
- TGI (HCT-116 colon): 38 µM
- TGI (IGROV1 ovarian): > 100 µM
- TGI (HOP-92 NSCLC): 8.73 µM
- TGI (SK-MEL-5 melanoma): 22.2 µM
- TGI (RXF-631 renal): 43.4 µM
- TGI (A549 NSCLC): 98.2 µM
- TGI (HL-60(TB) leukemia): > 100 µM
- TGI (SW-620 colon): > 100 µM
- TGI (KM20L2 colon): 14.1 µM
- TGI (ACHN renal): > 100 µM
- TGI (UACC-257 melanoma): > 100 µM
- TGI (LXFL 529 NSCLC): > 100 µM
- TGI (K-562 leukemia): > 100 µM
- TGI (786-0 renal): 36.2 µM
- TGI (HCT-15 colon): > 100 µM
- TGI (COLO 205 colon): > 100 µM
- TGI (NCI-H226 lung): 32.7 µM
- TGI (SF-539 CNS): 21.3 µM
- TGI (NCI-H522 lung): 36.7 µM
- TGI (A498 renal): 34.9 µM
- TGI (SK-MEL-28 melanoma): > 100 µM
- TGI (HT29 colon): 8.01 µM
- TGI (KM12 colon): 54.9 µM
- TGI (M14 melanoma): 29.1 µM
- TGI (SNB-19 CNS): 42.2 µM
- TGI (OVCAR-3 ovarian): 28.3 µM
- TGI (DMS 114 small cell lung): > 100 µM
- TGI (DLD-1 colon): > 100 µM
- TGI (SNB-75 CNS): 19.3 µM
- TGI (SR leukemia): > 100 µM
- TGI (DMS 273 small cell lung): 35 µM
- TGI (LOX IMVI melanoma): > 100 µM

Structure (SMILES): CC(C(=O)c1ccc(Cl)cc1)C1OC(=O)C(Cl)=C1Cl (configuration not stated)
- TGI (MOLT-4 leukemia): 64 µM
- TGI (UACC-62 melanoma): 46.7 µM
- TGI (OVCAR-4 ovarian): 64.6 µM
- TGI (TK-10 renal): > 100 µM
- TGI (XF 498 CNS): 84.1 µM
- TGI (SN12C renal): 56.3 µM
- TGI (NCI-H460 lung): > 100 µM
- TGI (UO-31 renal): > 100 µM
- TGI (U251 CNS): > 100 µM
- TGI (EKVX NSCLC): > 100 µM
- TGI (HOP-62 NSCLC): > 100 µM
- TGI (OVCAR-5 ovarian): > 100 µM
- TGI (MALME-3M melanoma): 41.7 µM
- TGI (SF-268 CNS): > 100 µM
- TGI (CCRF-CEM leukemia): 41.4 µM
- TGI (NCI-H23 lung): 71.1 µM
- TGI (SF-295 CNS): > 100 µM
- TGI (OVCAR-8 ovarian): > 100 µM
- TGI (HOP-18 NSCLC): > 100 µM
- TGI (SK-MEL-2 melanoma): 48.9 µM
- TGI (RXF 393 renal): 35.4 µM
- TGI (HCC-2998 colon): 63.5 µM
- TGI (IGROV1 ovarian): > 100 µM
- TGI (SK-MEL-5 melanoma): > 100 µM
- TGI (RXF-631 renal): > 100 µM
- TGI (A549 NSCLC): > 100 µM
- TGI (HL-60(TB) leukemia): 47.6 µM
- TGI (SW-620 colon): > 100 µM
- TGI (KM20L2 colon): > 100 µM
- TGI (ACHN renal): > 100 µM
- TGI (UACC-257 melanoma): > 100 µM
- TGI (LXFL 529 NSCLC): 40.6 µM
- TGI (K-562 leukemia): 58.8 µM
- TGI (786-0 renal): 36 µM
- TGI (HCT-15 colon): 50.5 µM
- TGI (COLO 205 colon): 51 µM
- TGI (NCI-H226 lung): > 100 µM
- TGI (SF-539 CNS): 70.9 µM
- TGI (NCI-H522 lung): 37.7 µM
- TGI (A498 renal): > 100 µM
- TGI (M19-MEL melanoma): 52.3 µM
- TGI (SK-MEL-28 melanoma): 57.1 µM
- TGI (HT29 colon): > 100 µM
- TGI (KM12 colon): > 100 µM
- TGI (M14 melanoma): > 100 µM
- TGI (SNB-19 CNS): > 100 µM
- TGI (OVCAR-3 ovarian): 71.9 µM
- TGI (SK-OV-3 ovarian): > 100 µM
- TGI (RPMI-8226 leukemia): 70.8 µM
- TGI (DMS 114 small cell lung): 76.7 µM
- TGI (DLD-1 colon): 49.9 µM
- TGI (SNB-75 CNS): > 100 µM
- TGI (LOX IMVI melanoma): 47.3 µM
